Measured values as given in patent US20200390762A1, “METHOD OF TREATING HAND-FOOT SYNDROME AND SYMPTOMS ASSOCIATED THEREWITH” (GALDERMA S.A., priority 2014, published 2020).
Where a name gives a salt, the structure may show the parent alone.

Tested on: murine UVB-induced epidermal hyperplasia model
Assay: Murine UVB-induced epidermal hyperplasia model: epidermis thickness (H&E histology)
Assay type: in vivo, SKH1 mice
Conditions: UVB 120 mJ/cm^2
Procedure: The back skin of the SKH1 mice was exposed to 120 mJ/cm^2 UVB using the Biospectra system equipped with UVB sunlamps with a maximum emission peak at 312 nm. Irradiations were performed under isoflurane gaseous anesthesia. Vehicle (PEG400/EtOH/PHY (30/20/50) p/p) or brimonidine at 0.2% or 2% was administered by topical route (100 μl) on a 10 cm^2-area on the back using a micropipette. The area is located on the upper part of the back to prevent the animals from licking themselves. […]
One hour after the third topical treatment and one hour before euthanasia, mice received an i.p. injection of 5-ethynyl-2′-deoxyuridine (EdU) at 100 mg/kg. […] For epidermal thickness, two sections per animal (7 μm) were stained in H&E. Skin histology and the epidermis thickness were analyzed using image analysis (mScope 3.9, Aurora mScope) on scanned slide pictures (NanoZoomer C9600-12, Hamamatsu Photonics K.K). […] Nuclei were also stained with DAPI (5 mg/ml) diluted in Vectashield Hard Set Mounting medium for fluorescence ref: 1-1400 Vector Laboratories). The number of keratinocyte stained with Alexa Fluor® 594 was counted from digital images (NanoZoomer C9600-12, Hamamatsu Photonics K.K) and the epidermis length of each section determined using an in-house dedicated tool. […]

`Brc1c(NC2=NCCN2)ccc2nccnc12` [brimonidine tartrate, (5-Bromo-quinoxalin-6-yl)-(4,5-dihydro-1H-imidazol-2-yl)-amine (Brimonidine)] was tested, and the “inhibition of acanthosis (epidermis thickness)” value (0.2% topical, pre-treatment) was “no effect” and the “inhibition of acanthosis (epidermis thickness)” value (2% topical, pre-treatment (1 h before UV irradiation, then twice more at 23 hours apart)) was −23%.
